Experimental data reported in patent publication US9802962B2, “Tricyclic pyrone compounds reduce amyloid beta aggregates” (priority 2013, dated 2017).
Entries after “also recorded” stand apart in the source; their conditions may differ.

What was measured:
[1] = tested on: ABCA1 cholesterol transporter gene; assay: Increase of ABCA1 cholesterol transporter gene; type: cell-based
Text: It has been reported that an induction of cholesterol efflux resulting in a reduction of Aβ formation/deposition in vitro and in vivo (Kim, et al., J Alzheimers Dis, 2009, 16:121-131). For additional Detail, see the attached manuscript entitled, “Inhibition of Acyl-CoA: Cholesterol Acyltransferase (ACAT), Overexpression of Cholesterol Transporter Gene, and Protection of Amyloid β (Aβ) Oligomers-Induced Neuronal Cell Death by Tricylic Pyrone Molecules” which is incorporated herein.

rat hippocampal slices = assay: Long-term potentiation (LTP) in rat hippocampal slices; type: cell-based
Method: FIGS. 2A-2B. Effects of TP70 on rat hippocampal LTP. FIG. 2A. Top panels show superimposed field excitatory post-synaptic potentials (EPSPs) taken from baseline and 45 min following high frequency stimulation (HFS, four 1-s trains of 100 pulses of 0.2 ms delivered at 100 Hz, inter-train interval of 20 s) of the Schaffer collateral-CA1 synapses. FIG. 2B. […] In Control HFS induced LTP. AβO blocked LTP. TP70 (1 μM) restored LTP in the presence of AβO. TP70 alone enhanced LTP.
We further investigated effects of TP70 on basal neurotransmission and synaptic plasticity, for example long-term potentiation (LTP) in rat hippocampal slices as previously described (Villeda, et al., Nature, 2011, 477:90-94; Xie, et al., Pflugers Arch, 1994, 427:481-486).

[2] = log P by octanol/water partition; type: physicochemical
[3] = Plasma and organ distribution after ip administration in mice; type: in vivo; details: 25 mg/kg ip
Method: FIG. 4. Concentrations or content of TP70 in the plasma and 7 key organs following ip administration of TP70 (25 mg/kg) in mice (n=3 each data point).
In addition to determination of drug concentrations in plasma and the brain, drug content in other six key organs, the heart, liver, lungs, intestine, and kidneys of mice (male C57BL/6, 3 months, Harlan, n=3 per timepoint) were also assessed in a separate pharmacokinetic (PK) study of TP70 (25 mg/kg, ip,) using HPLC and mass spectrometry.

APP/PS1 mice = assay: SmartCage homecage activity and locomotion in APP/PS1 mice; type: in vivo; details: Day 7, TP70 in drinking water, treatment versus control group
Method: FIGS. 8A-8D. Effects of TP70 on homecage activity and locomotion in homecage monitored using the SmartCage™ system A. Active time in each time block during 24 hours. B. Travel distance in each time block during 24 hours. C. Travel speed in each time block during 24 hours. D. Rearing activity in each time block during 24 hours. The gray shadow indicates dark phase of a 12:12 light/dark cycle.
(§1) The validated SmartCage™ system that enables automated, objective, quantitative and long-term evaluation of neuropsychological endpoints at the animal's home cages (Flores, et al., IEEE Trans Biomed Eng, 2007, 54:225-233; Xiong, et al., Stroke, 2011, 42:2026-2032; Carter, et al., Nat Neurosci, 2010, 13:1526-1533; Khroyan, et al., Clin Exp Pharmacol Physiol, 2012, 39:614-622) was used to complement other special individual learning and memory tests (Shineman, et al., Alzheimers Res Ther, 2011, 3:28; Hamann, et al., Neuropsychologia, 2002, 40:1187-1195; Aultman, et al., Psychopharmacology (Berl), 2001, 153:353-364; Ashe, K H, J Alzheimers Dis, 2006, 9:123-126). […] Homecage activity and locomotion were assessed on Day 7 after the treatment and the blood samples were collected from each mouse after the assessment of general behavior. […]

wildtype mice (C57BL/6) = assay: Rotarod performance in wildtype mice; type: in vivo; details: 50 mg/kg ip, one hour after dosing, Day 5
Method: FIG. 9. Effects of TP70 on mouse rotarod performance. The mice were trained three times every day for 4 days to reach its maximal performance using SmartCage Rotarod device (with a setting of a constant speed at 15 […] per minute).
To further assess side effects on motor activity, and particularly balance and muscle coordination, rotarod performance was conducted by the wildtype mice (C57BL/6 female, 2 months old, n=7). Vehicle injection (i.p) was given after the Day 4 training to assess any effects of vehicle or injection per se. On Day 5, one hour after TP70 (50 mg/kg, ip) the mice were subject to the rotarod test.

[4] = Cerep in vitro profiling (protein binding, absorption, metabolic stability, off target activity); type: in vitro ADME; details: Caco-2, P-gp, human liver microsomes, CYPs, HepG2 viability, hERG
[5] = Plasma concentration after 7 days of TP70 in drinking water, APP/PS1 mice; type: in vivo; details: after 7 days in drinking water
Text: as §1, with “9:123-126). The SmartCage was able to reveal the behavioral phenotypes of a mouse stroke model of middle cerebral artery occlusion (MCAO) (Xiong, et al., Stroke, 2011, 42:2026-2032) and a hypocretin/orexin neuron degeneration model (orexin/ataxin-3) (Xie, et al., J Clin Invest, 2008, 118:2471-2481; Aultman, et al., Psychopharmacology (Berl), 2001, 153:353-364; Hara, et al., Neuron 2001, 30:345-354). […] These validated protocols were applied to PK/PD studies on TP70 in one more AD transgenic model, APP/PS1 mice, which express mutant APPs in combination with mutant PS1.” for “9:123-126).”

## Cc1cc2c(c(=O)o1)C=C1CCC(C(C)CNCc3ccc(O)cc3)CC1O2 (stereo not drawn) [TP70]
[1]
  EC50: 1100 nM
Rat hippocampal slices
  concentration required for enhancing synaptic activity and LTP restoration: 0.1 to 3 µM
Rat hippocampal slices; 1 μM, perfused 20 min prior to co-application of AβO
  LTP in the presence of AβO: restored LTP; also recorded: restored LTP to the non-AβO-treated level
Rat hippocampal slices; compound alone
  basal synaptic activity: without affecting basal synaptic activity
Rat hippocampal slices; without AβO
  magnitude of LTP, compound alone: significantly enhanced the magnitude of LTP
[2]
  log P: 1.90
[3]
  distribution in the heart: lowest distribution in the heart
[3]; mice
  distribution in the brain: higher distribution in the brain than in the plasma and all other organs examined, except for kidneys
[3]; two hours post dosing
  disposition in the kidneys: highest disposition in the kidneys
  distribution in intestines: low distribution in intestines
APP/PS1 mice
  homecage activity and locomotion: no significant differences
Wildtype mice (C57BL/6)
  rotarod performance: insignificant effects
[4]
  druggable profile versus currently used drugs or reference compounds: druggable profiles better or similar to several currently used drugs or reference compounds
[5]
  plasma TP70 concentration: 1.7 ± 0.5 mg/L
  plasma TP70 concentration (equivalent): 4.3 µM
